Our source for the solubility (mole fraction) values is BigSolDB 2.1.

Broadly, the solubility (mole fraction) is the moles of solute divided by all moles in the saturated solution.

Molecules are shown by their SMILES.

For the compound `CCCCOC(=O)c1ccc(O)cc1`, the solubility (mole fraction) reads like this: (in ethanol, 288.15 K) 0.287; (in ethanol, 298.15 K) 0.361; (in ethanol, 308.15 K) 0.433; (in ethanol, 318.15 K) 0.524; (in isopropanol, 288.15 K) 0.293; (in isopropanol, 298.15 K) 0.339. This compound had a solubility (mole fraction) (in isopropanol, 308.15 K) of 0.415; a solubility (mole fraction) (in isopropanol, 318.15 K) of 0.512; a solubility (mole fraction) (in n-propanol, 288.15 K) of 0.289; a solubility (mole fraction) (in n-propanol, 298.15 K) of 0.352; a solubility (mole fraction) (in n-propanol, 308.15 K) of 0.448; a solubility (mole fraction) (in n-propanol, 318.15 K) of 0.522.
`CCOC(=O)c1ccc(O)cc1` yielded a solubility (mole fraction) (in ethanol, 288.15 K) of 0.123; a solubility (mole fraction) (in ethanol, 298.15 K) of 0.163; a solubility (mole fraction) (in ethanol, 308.15 K) of 0.201; a solubility (mole fraction) (in ethanol, 318.15 K) of 0.257; a solubility (mole fraction) (in isopropanol, 288.15 K) of 0.157; a solubility (mole fraction) (in isopropanol, 298.15 K) of 0.182. For the same compound, the solubility (mole fraction) worked out at 0.239 (in isopropanol, 308.15 K); 0.282 (in isopropanol, 318.15 K); 0.127 (in n-propanol, 288.15 K); 0.174 (in n-propanol, 298.15 K); 0.214 (in n-propanol, 308.15 K); 0.251 (in n-propanol, 318.15 K).
